Measured values as given in patent US20030119862A1, “Pharmaceutical combination” (priority 2001, published 2003).
Read-outs that look alike come from different tables or passages of the source.

Tested on: isolated human neutrophils
Assay: Inhibition of fMLP-induced elastase release from isolated human neutrophils
Type: cell-based
Details: read-out: Inhibition of elastase release (IC50)
Protocol: Test data—Inhibition of Elastase Release from Isolated Human Neutrophils
The dextran/blood was mixed gently by inversion and left to stand at room temperature for 45 minutes to allow erythrocyte sedimentation. Aliquots of 16 ml from the leukocyte-rich supernatant were overlaid on 10 ml Ficoll-Hypaque cushions in 50 ml polypropylene centrifuge tubes and the tubes centrifuged at 400 g for 35 mins at 21° C. The plasma, mononuclear cell layer and Ficoll were removed leaving the granulocyte-rich pellet. The pellets were initially re-suspended in 10 ml ice-cold distilled water for 45 seconds to lyse contaminating red blood cells, followed by the addition of 10 ml of ice-cold double concentrated phosphate buffered saline (PBS) solution to each tube to restore osmolarity. The suspensions were re-centrifuged at 200 g for 10 min at 4° C. to generate neutrophil pellets. The supernatants were removed and the pellets gently resuspended in a total volume of 10 ml ice-cold HBSS using a Pasteur pipette. A differential white cell count was performed on the resulting neutrophil suspension using a Beckman Coulter Ac. T5 haematology analyser and the cells stored on ice until assay. Immediately prior to assay, aliquots of the neutrophil suspension were removed and diluted to a count of 4×10^6 neutrophils/ml ice-cold HBSS containing 2U/ml adenosine deaminase.
Inhibition of fMLP induced elastase release was performed using a 160 μl assay volume in 96-well polystyrene microtiter plates. Elastase release was assayed by measuring the rate of cleavage of the synthetic substrate MeOSuc-Ala-Ala-Pro-Val-pNA. […] Assay plates were incubated at 37° C. for 10 minutes before addition of 8 μl of 2 μM fMLP (in HBSS) and measurement of rate of substrate cleavage was measured at λ=405 nm for 3 minutes at 37° C. Basal elastase, release was determined by the addition of 8 μl HBSS in place of fMLP. […] In the case of the combination experiments, 1000 nM of Ariflo (trade mark) (A) (also known as cilomilast) or 9-cyclopentyl-5,6-dihydro-7-ethyl-3-(2-thienyl)-9H-pyrazolo[3,4-c]-1,2,4-triazolo[4,3-α]pyridine and 9-cyclopentyl-5,6-dihydro-7-ethyl-3-(tert-butyl)-9H-pyrazolo[3,4-c]-1,2,4-triazolo[4,3-c]pyridine (C) were added to the assay and a concentration response curve was then generated for formoterol (F) or salmeterol (S).

[1] = Neutrophil, single agent, fMLP-induced elastase release, isolated human neutrophils

SMILES | IC50 [1] [nM] | further results
COc1ccc([C@]2(C#N)CC[C@@H](C(=O)O)CC2)cc1OC1CCCC1 [A, cilomilast] | > 1000 | –
COc1ccc(CC(C)NCC(O)c2ccc(O)c(NC=O)c2)cc1 (stereo not shown) [F, N-[2-hydroxy-5-(1-hydroxy-2-((2-(4-methoxyphenyl)-1-methylethyl)amino)ethyl)phenyl]formamide] | – | IC50 (Homo sapiens, Neutrophil): > 1000 nM
OCc1cc(C(O)CNCCCCCCOCCCCc2ccccc2)ccc1O (stereo not shown) [S, salmeterol] | > 1000 | –
CCc1nn(C2CCCC2)c2c1CCn1c(-c3cccs3)nnc1-2 [C, 9-cyclopentyl-5,6-dihydro-7-ethyl-3-(2-thienyl)-9H-pyrazolo[3,4-c]-1,2,4-triazolo[4,3-α]pyridine and 9-cyclopentyl-5,6-dihydro-7-ethyl-3-(tert-butyl)-9H-pyrazolo[3,4-c]-1,2,4-triazolo[4,3-c]pyridine] | – | IC50 (single agent, fMLP-induced elastase release, isolated human neutrophils): > 1000 nM
